What was measured:
Format in all cases: in vivo
[1] = system: Cabbage Looper [Trichoplusia ni (Hubner)]; test: Cabbage looper insecticidal test; settings: second-instar larvae, percent in solution; 3-5 days
Outline: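 LC50, as percent test compound in solution, derived from dosage-mortality curves; concentrations started at 0.1% and went lower. Five second-instar larvae per dish fed on acetone-water-dipped, dried squash cotyledons in a humid chamber. Deaths recorded 3-5 days post-infestation.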

[2] = system: Aster Leafhopper [Macrosteles fascifrens (Stal)]; test: Aster leafhopper insecticidal test; settings: adults/nymphs, percent in solution; 48 hours
Description: The compounds in Tables 1 and 2 above were tested for insecticidal activity using the following testing procedures. LC50 values, based on the results of these tests and calculated according to dosage-mortality curves, are expressed in Table 3.
Aster Leafhopper [Macrosteles fascifrens (Stal)]
Oat seedlings (Avena sp) were grown in a commercial potting soil in cups. When the plants were approximately 10 cm tall they were thinned to three plants per cup and dipped for 2-3 seconds in 50-50 acetone-water solutions of the test compounds. When the plants had dried, a clear plastic tube was placed over them and the bottom end pressed into the cup. Ten aster leafhopper adults/nymphs were then placed in each tube and the tops of the tubes covered with white organdy cloth. Mortality counts were made after 48 hours. Test concentrations ranged from 0.05% down to that at which 50% mortality occurred. The LC50 values are expressed below in Table 3 under the heading "LH" in terms of the percent of the test compound in the solution.

[3] = system: Housefly [Musca domestica]; test: Housefly insecticidal test; settings: μg per 25 female flies; mortality after 48 hours
Outline: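 Residual contact test: acetone dilution, 0.01% peanut oil spreader, solvent evaporated; 25 ♀ flies (1-2 d old) per cage; sugar-water plug; 48 h mortality read. LC50 in μg/25 female flies, from dose-mortality curves; top dose 100 μg/25 flies.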

[4] = system: Maize weevil [Sitophilus Zeamais (Motschulsky)]; test: Maize weevil insecticidal test; settings: adult weevils, percent in solution; 48 hours
Outline: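 LC50, in percent of compound in solution, was derived from dosage-mortality curves after 48 h at about 25 °C. Ten adult weevils per container fed on four corn seeds briefly immersed in acetone:water (50:50) solutions of up to 0.01% and dried.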

[5] = system: Tobacco Budworm [Heliothis virescens (Fabricius)] eggs; test: Tobacco budworm egg test; settings: 2-day old eggs, percent in solution
Outline: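 LC50 is given as percent compound in the dipping solution, fitted from dosage-mortality curves. Two-day-old eggs on paper towel were dipped in acetone solutions (top concentration 0.1%), kept at 78° F on rearing medium, and scored after control hatch and larval feeding.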

| Structure (SMILES) | LC50, CL [1] | LC50, LH [2] | LC50, HF [3] | LC50, MW [4] | LC50, TBW, E (TBW-E) [5] |
| --- | --- | --- | --- | --- | --- |
| N#CC(=Nc1ccc(Cl)cc1)OCc1cccc(Oc2ccccc2)c1 [Compound 21] | 0.02% | > 0.05% | 7 µg | > 0.01% | > 0.1% |
| CC(C)(C)C(=Nc1ccc(Cl)c(Cl)c1)OCc1cccc(Oc2ccccc2)c1 [Compound 25] | 0.01% | > 0.05% | > 100 µg | > 0.01% | > 0.1% |
| FC(F)(F)C(=Nc1ccc(Cl)cc1)OCc1cccc(Oc2ccccc2)c1 [Compound 35] | 0.008% | > 0.05% | 15 µg | > 0.01% | 0.03% |
| CC(C)C(=Nc1ccccc1)OCc1cccc(Oc2ccccc2)c1 [Compound 43] | 0.018% | > 0.05% | 7 µg | > 0.01% | 0.05% |
| Fc1ccc(N=C(OCc2cccc(Oc3ccccc3)c2)C(F)F)cc1 [Compound 50] | 0.02% | > 0.05% | 43 µg | > 0.01% | > 0.05% |
| CC(C)C(=Nc1ccccc1C(F)(F)F)OCc1cccc(Oc2ccccc2)c1 [Compound 72] | 0.08% | > 0.05% | > 100 µg | > 0.01% | > 0.1% |
| CCS(=O)(=O)c1ccc(N=C(OCc2cccc(Oc3ccccc3)c2)C(C)C)cc1Cl [Compound 112] | 0.025% | > 0.05% | > 100 µg | > 0.01% | > 0.1% |
| Fc1ccc(N=C(OCc2cccc(Oc3ccccc3)c2)C(F)(F)C(F)(F)F)cc1Cl [Compound 117] | 0.006% | 0.0003% | 55 µg | > 0.01% | > 0.1% |
| CC(C)C(=Nc1ccc(F)c(Cl)c1)OCc1cccc(Oc2ccccc2F)c1 [Compound 119] | 0.0007% | 0.0008% | 27 µg | > 0.01% | 0.048% |
| CC1(C)C(C(=Nc2ccc(F)c(Cl)c2)OCc2cccc(Oc3ccccc3)c2)C1(C)C [Compound 124] | 0.01% | > 0.05% | 17 µg | > 0.01% | > 0.1% |
| CC(C)C(=Nc1cccc(Br)c1)OCc1cccc(Oc2ccccc2)c1 [Compound 128] | 0.005% | 0.003% | 4.5 µg | > 0.01% | 0.037% |
| CC(C)C(=Nc1ccccc1Br)OCc1cccc(Oc2ccccc2)c1 [Compound 132] | 0.025% | > 0.05% | 65 µg | > 0.01% | > 0.1% |
| CSc1ccc(N=C(OCc2cccc(Oc3ccccc3)c2)C(C)C)cc1 [Compound 142] | 0.005% | > 0.05% | 15 µg | > 0.01% | 0.1% |
| COc1cccc(N=C(OCc2cccc(Oc3ccccc3)c2)C(C)C)c1 [Compound 143] | 0.002% | 0.006% | 10 µg | > 0.01% | < 0.1% |
| COC(=O)c1ccc(N=C(OCc2cccc(Oc3ccccc3)c2)C(C)C)cc1 [Compound 151] | 0.009% | > 0.05% | 38 µg | > 0.01% | > 0.1% |
| CC(C)C(=Nc1ccc(C(C)(C)C)cc1)OCc1cccc(Oc2ccccc2)c1 [Compound 153] | 0.004% | 0.0005% | > 100 µg | > 0.01% | 0.1% |
| Cc1cccc(N=C(OCc2cccc(Oc3ccccc3)c2)C(C)C)c1 [Compound 155] | 0.004% | > 0.05% | 9 µg | > 0.01% | 0.06% |

| Structure (SMILES) | LC50, CL [1] | LC50, LH [2] | LC50, HF [3] | LC50, MW [4] | LC50, TBW, E (TBW-E) [5] |
| --- | --- | --- | --- | --- | --- |
| Cc1ccc(N=C(OCc2cccc(Oc3ccccc3)c2)C(C)C)cc1 [Compound 156] | 0.004% | > 0.05% | 10 µg | > 0.01% | 0.05% |
| COc1ccc(N=C(OCc2cccc(Oc3ccccc3)c2)C(C)C)cc1 [Compound 160] | 0.005% | 0.05% | 7 µg | > 0.01% | 0.09% |
| CC(C)C(=Nc1ccc(C#N)cc1)OCc1cccc(Oc2ccccc2)c1 [Compound 172] | 0.002% | > 0.05% | 5 µg | > 0.01% | 0.04% |
| c1ccc(Oc2cccc(COC(=Nc3ccc4c(c3)OCO4)C3CC3)c2)cc1 [Compound 177] | 0.002% | > 0.05% | 13 µg | 0.01% | > 0.1% |
| CCC(=Nc1ccc2c(c1)OCO2)OCc1cccc(Oc2ccccc2)c1 [Compound 178] | 0.004% | > 0.05% | 6 µg | > 0.01% | > 0.1% |
| CC(C)C(=Nc1ccc2c(c1)OCCO2)OCc1cccc(Oc2ccccc2)c1 [Compound 179] | 0.004% | 0.005% | 13 µg | > 0.01% | > 0.1% |
| CC(C)C(=Nc1ccc(-c2ccccc2)cc1)OCc1cccc(Oc2ccccc2)c1 [Compound 186] | 0.008% | > 0.05% | > 100 µg | > 0.01% | > 0.1% |
| CC(C)C(=Nc1ccc(Cl)cc1)OCc1cccc(Oc2ccc(F)cc2)c1 [Compound 189] | 0.00027% | 0.002% | 17 µg | > 0.01% | 0.07% |
| CC(C)C(=Nc1ccc(Cl)c(C(F)(F)F)c1)OCc1cccc(Oc2ccc(F)cc2)c1 [Compound 193] | 0.00075% | 0.001% | 100 µg | > 0.01% | > 0.1% |
| CC(C)C(=Nc1ccc(F)c(Cl)c1)OCc1cccc(Oc2ccc(F)c(F)c2)c1 [Compound 217] | 0.00006% | > 0.05% | 8 µg | 0.0084% | 0.015% |
| CC(C)C(=Nc1ccc2c(c1)OCO2)OCc1cccc(Oc2ccc(Cl)cc2)c1 [Compound 240] | 0.0003% | > 0.05% | 14 µg | > 0.01% | 0.04% |
| CC(C)C(=Nc1cccc(I)c1)OCc1cccc(Oc2ccc(F)cc2)c1 [Compound 255] | 0.00017% | 0.0005% | 16 µg | > 0.01% | 0.075% |
| CSc1ccc(Oc2cccc(COC(=Nc3ccc(F)c(Cl)c3)C(C)C)c2)cc1 [Compound 256] | 0.007% | > 0.05% | > 100 µg | > 0.01% | 0.1% |
| CC(C)C(=Nc1ccc(F)cc1)OCc1cccc(Oc2ccc(Br)cc2)c1 [Compound 259] | 0.0003% | > 0.05% | 15 µg | > 0.01% | 0.05% |
| CC(C)C(=Nc1cccc([N+](=O)[O-])c1)OCc1cccc(Oc2ccc(Cl)cc2)c1 [Compound 271] | 0.0004% | > 0.05% | 27 µg | > 0.01% | 0.1% |
| CC(C)C(=Nc1ccc(F)c([N+](=O)[O-])c1)OCc1cccc(Oc2ccccc2)c1 [Compound 293] | 0.0045% | > 0.05% | 19 µg | > 0.01% | > 0.1% |

From patent publication US5070210A, “Novel ketenimines as intermediates for insecticides” (ICI Americas Inc., priority 1990, dated 1991)
